# Assay results from ChEMBL document CHEMBL5726285, “Tricyclic compounds as anticancer agents” (2017).
# Molecular target: Bromodomain-containing protein 4 (Homo sapiens, UniProt O60885)
# Test: Time Resolved Fluorescence Resonance Energy Transfer (TR-FRET) Assay: The binding of compounds to bromodomain BRD4 (44-168), BRD4 (333-460), and BRD4 (1-477 or 44-460) was assessed using a time resolved fluorescent resonance energy transfer binding assay (1), that measures the binding of a fluorescently labeled probe molecule to the bromodomain protein. The bromodomain protein, fluorescent probe molecule (either a biotinylated histone peptide or a fluorescently labeled small molecule), and dose-responded test compound are incubated together to reach thermodynamic equilibrium. In the absence of a test compound, the bromodomain and small molecule are bound, resulting in a high fluorescent signal. In the presence of a sufficient concentration of inhibitor, this intercation is disrupted resulting in a lost of fluorescent resonance energy transfer.All assay components were dissolved in buffer composition 20 mM Hepes pH 7.5, 150 mM NaCl, 5 mM DTT, 0.005% Tween 20, and 100 ug/ml BSA for BRD4 (1-477 and 44-460). The final concentrations of the bromodomain proteins are 1.6 nM BRD4(44-168), 1 nM BRD4(333-460), and 1 nM BRD4(1-477 or 44-460), and the fluorescent probe molecule is 100 nM, 50 nM, and 7.5 nM respectively. All proteins were biotinylated. A streptavidin labeled with terbium cryptate (Cisbio SA-Tb) was used as detection, and pre-mixed with the bromodomain protein at a final concentration of 0.2 nM. In some instances for BRD4 (44-460), anti-His terbium cryptate was used as a detection. 7.5 nl of dose-responded test compound or dmso vehicle (0.0375%) was pre-spotted in a black Corning 384 well plate and 10 ul each of bromodomain/detection reagent and fluorescent small molecule solution were added to the plate, and the reaction incubated for 60 min at room temperature. Plates were then read on EnVision plate reader, (λex=340 nm, acceptor λEm=520 nm, and donor λEm=615 nm, LANCE D400 mirror). Time resolved fluorescnce intensity measurements were made at both emissions, and the ratio of acceptor/donor was calculated and used for data analysis.
row,Structure (SMILES),IC50 [nM]
1,COc1nnn(C)c1-c1cnc2c3c(OC)ncc(S(C)(=O)=O)c3n([C@H](c3ccccc3)C3CCOCC3)c2c1,< 10
2,Cc1nnn(C)c1-c1cnc2c3c(N(C)C(C)C)ncc(S(C)(=O)=O)c3n(C(c3ccccc3)C3CCC(F)(F)CC3)c2c1 (stereo not drawn),< 10
3,Cc1nnn(C)c1-c1cnc2c3ccc(N4CCN(C)CC4)nc3n(C(c3ccccc3)C3CCC(F)(F)CC3)c2c1 (stereo not drawn),< 1
4,Cc1nnn(C)c1-c1cnc2c3c(OC(C)C)ncc(S(C)(=O)=O)c3n(C(c3ccccc3)C3CCC(F)(F)CC3)c2c1 (stereo not drawn),< 10
5,COC1CN(c2ncc(S(C)(=O)=O)c3c2c2ncc(-c4c(C)nnn4C)cc2n3C(c2ccccc2)C2CCC(F)(F)CC2)C1 (stereo not drawn),< 10
6,Cc1nnn(C)c1-c1cnc2c3c(NCC(C)C)ncc(S(C)(=O)=O)c3n(C(c3ccccc3)C3CCC(F)(F)CC3)c2c1 (stereo not drawn),< 10
7,Cc1nnn(C)c1-c1cnc2c3c(NC(C)C)ncc(S(C)(=O)=O)c3n(C(c3ccccc3)C3CCC(F)(F)CC3)c2c1 (stereo not drawn),< 10
8,CNCCN(C)c1ccc2c3ncc(-c4c(C)nnn4C)cc3n(C(c3ccccc3)C3CCC(F)(F)CC3)c2n1 (stereo not drawn),< 10
